The values that follow come from publication PMC4666006 (European journal of cancer (Oxford, England : 1990), 2013).

The structures appear in SMILES notation.

The nature of series [1]: Pharmacokinetic assessments. It is filed as in vivo, patients. As to conditions: for AUC(0-t) / Cmax / Tmax: human, serum.
Another series deals with patients with RCC. Particulars: cited from earlier work.
Series [2] deals with patients with advanced renal cell cancer. Particulars: ongoing randomised phase III trial; cited from earlier work.
The test system of series [3] is patients with advanced RCC. As to conditions: phase III; cited from earlier work.
Series [4] relates to patients with advanced RCC. Briefly: Treatment-emergent adverse events. The class given is in vivo. Particulars: all 27 patients.
Series [5] has as its system patients with advanced RCC. Briefly: 3 + 3 dose-escalation: dose-limiting toxicities and recommended phase II dose. The class given is in vivo.
Series [6] deals with patients with advanced RCC. Particulars: cited from earlier work.
For series [7] the following is noted: cited from earlier work.

A word on the AUC(0-t): it is exposure summed from dosing to a finite time, without extrapolation to infinity. What is called Cmax is the peak of the concentration-time curve. As a reminder, the Tmax is the time from dosing to the highest level. For `CO[C@H]1C[C@@H]2CC[C@@H](C)[C@@](O)(O2)C(=O)C(=O)N2CCCC[C@H]2C(=O)O[C@H]([C@H](C)C[C@@H]2CC[C@@H](O)[C@H](OC)C2)CC(=O)[C@H](C)/C=C(\C)[C@@H](O)[C@@H](OC)C(=O)[C@H](C)C[C@H](C)/C=C/C=C/C=C/1C` [Sirolimus, sirolimus], in series [1] (day 22, Temsirolimus 15 mg/week), the “Ratio of sirolimus AUC0–last /temsirolimus AUC0–last, mean (SD)” value was 1.26 (0.67). Besides, the “Ratio of sirolimus AUC0–last /temsirolimus AUC0–last, mean (SD)” value in series [1] (day 22, Temsirolimus 25 mg/week) is on record as 1.48 (0.66). Moreover, in series [1] (intravenous, 15 mg/week), the AUC(0-t) was determined as 3560 ng·h/mL, the highest level (Cmax) was 51.3 ng/mL and the Tmax was determined as 3.18 h. For the same molecule, in series [1] (intravenous, 25 mg/week), the exposure AUC(0-t) amounted to 6570 ng·h/mL, the Cmax was determined as 93.8 ng/mL and the Tmax amounted to 1.81 h.

Regarding `CNC(=O)c1ccccc1Sc1ccc2c(/C=C/c3ccccn3)n[nH]c2c1` [axitinib], in the series on patients with RCC, the “Grade 3/4 hypertension, patients” value is 16% and the Incidence of hypertension is listed as 40%.

As for `Cc1ccc(Nc2nccc(N(C)c3ccc4c(C)n(C)nc4c3)n2)cc1S(N)(=O)=O` [pazopanib], in the series on patients with RCC, the “Grade 3 hypertension, patients” value was 4%; the “Grade 4 hypertension, patients” value was 0%; the Incidence of hypertension is 40%.

`CNC(=O)c1cc(Oc2ccc(NC(=O)Nc3ccc(Cl)c(C(F)(F)F)c3)cc2)ccn1` [sorafenib]: in the series with patients with RCC, the “Grade 3/4 hypertension, patients” value was 4–11% and the Incidence of hypertension is 17–29%. The progression-free survival in series [2] is on record as 9.1 months.

As to `CCN(CC)CCNC(=O)c1c(C)[nH]c(/C=C2\C(=O)Nc3ccc(F)cc32)c1C` [sunitinib], in the series with patients with RCC, the “Grade 3 hypertension, patients” value is 8%; the “Grade 4 hypertension, patients” value is 0%; the Incidence of hypertension was 24%.

Regarding `CO[C@H]1C[C@@H]2CC[C@@H](C)[C@@](O)(O2)C(=O)C(=O)N2CCCC[C@H]2C(=O)O[C@H]([C@H](C)C[C@@H]2CC[C@@H](OC(=O)C(C)(CO)CO)[C@H](OC)C2)CC(=O)[C@H](C)/C=C(\C)[C@@H](O)[C@@H](OC)C(=O)[C@H](C)C[C@H](C)/C=C/C=C/C=C/1C` [temsirolimus], in series [3], the “Fatigue, temsirolimus-related TEAE” value is given as 51%. For the same molecule, the “Patients with ≥1 dose reduction/interruption of the drug” value in series [4] was 63%. The “Recommended phase II dose (RP2D), temsirolimus” value in series [5] (intravenously, in combination with tivozanib) was determined as 25 mg/week. In series [1] (intravenous, 15 mg/week), the AUC(0-t) was 3190 ng·h/mL, the Cmax came out at 164 ng/mL and the Tmax is 2.32 h. Further, in series [1] (intravenous, 25 mg/week), the area under the curve AUC(0-t) came to 4240 ng·h/mL, the highest level (Cmax) was 200 ng/mL and the Tmax came to 1.81 h.

Regarding `COc1cc2nccc(Oc3ccc(NC(=O)Nc4cc(C)on4)c(Cl)c3)c2cc1OC` [tivozanib], in series [4], the “Patients with ≥1 dose reduction/interruption of the drug” value stood at 59%. Further, the “Recommended phase II dose (RP2D), tivozanib” value in series [5] (orally, 3 weeks on/1 week off, in combination with temsirolimus) was 1.5 mg/day. In addition, the “Hypertension, treatment-related event, patients” value in series [6] (phase II, advanced RCC) is given as 45%. Besides, the “Fatigue, treatment-related event, patients” value in series [6] (tivozanib monotherapy, phase II, advanced RCC) is given as 8%. Moreover, in series [6] (tivozanib phase II trial), the “Grade 3 hypertension, patients” value is 11% and the “Grade 4 hypertension, patients” value is 1%. The progression-free survival in series [2] is 11.9 months. Also, the half-life in series [7] is recorded as ~ 4.5 d. In addition, in series [1] (oral, […]), the time to peak (Tmax) came out at 17.3 h.
